Entries after “also recorded” stand apart in the source; their conditions may differ.
Key:
physchem = test: physchem
Experimental: The ADMET and PK properties of YA6060 was determined.
Determination of physiochemical properties. The profiles of six selected analogs is estimated in silico, and selected Axin stabilizers are evaluated in in vitro assays: the aqueous solubility is determined using a multiscreen solubility filter plate (Millipore, Billerica, MA) coupled with LC-MS/MS, as performed for the already synthesized YA6060 analogs; the cell viability assays on selected analogs is measured using HEK293 cells; the intestinal permeability by determining the transport from the apical to the basolateral (A to B) in Caco-2 monolayers; the metabolic stability by incubating the compounds with mouse microsomes and liver tissue S9 fraction and analyzing by LC-MS/MS.

[1] = system: DMNA-induced liver fibrosis; test: Dimethylnitrosamine (DMNA) liver fibrosis mouse model; format: in vivo, C57BL/6 mice
Experimental: FIG. 4 illustrates that YA6060 protects liver from damage caused by dimethylnitrosamine (DMNA). Vehicle (top panels) or 10 mg/kg DMNA (bottom panels) was given on a Monday-Tuesday-Wednesday schedule each week; YA6060 or vehicle was given daily. After sacrifice of mice (6/group) at 4 weeks, paraffin sections were stained with Sirius Red to visualize collagen. […] Bars, 100 μm.
FIG. 10 is a graph of experimental data illustrating anti-fibrotic efficacy of YA6060 in mice. C57BL/6 mice received dimethylnitrosamine (DMNA, 10 mg/kg/d i.p. for 3d and then rest for 4d) or saline, with or without YA6060 (0.5 mg/kg/d) for 4 weeks. The fibrosis and inflammation biomarkers were examined by RT-PCR with the liver tissues.
FIG. 11A-FIG. 11C illustrate the effect of YA6060 on liver function in mice. C57BL/6 mice received dimethylnitrosamine (DMNA, 10 mg/kg/d i.p. for 3d and then rest for 4d) or saline, with or without YA6060 (0.5 mg/kg/d) for 4 weeks. The serum biochemistry was determined for alanine aminotransferase (ALT) and aspartate aminotransferase (AST) (FIG. 11A), albumin (FIG. 11B), and total bilirubin (FIG. 11C).
The effect of YA6060 treatment on the expression of fibrotic markers in LX-2 cells was examined. LX-2 cells were treated with TGF-beta to model fibrosis. Protein expression of collagen 1, vimentin, and alpha-SMA by Western blotting (FIG. 14A). mRNA expression of collagen 1, vimentin, and alpha-SMA by RT-PCR was examined (FIG. 14B). mRNA expression of genes associated with inflammation by RT-PCR was examined (FIG. 14C). The cells were treated with the indicated concentrations of YA6060 for 24 hours. *P<0.05, **P<0.01. The effect of YA6060 treatment on liver fibrosis in mice was also examined (FIG. 15). […]
Fibrosis in the liver tissues of the mice that received YA6060 treatment was quantified (FIG. 16). […] The collagen of liver tissues was stained by Sirius red (SR) and quantitated by Image J software. ***P<0.001. […]

Axin 1 = Axin 1 (Homo sapiens (Human), UniProt O15169); test: Western blotting of Axin 1 in HEK293 cells; format: cell-based; settings: 100 nM, 24 h
Experimental: FIG. 6A-FIG. 6E illustrate the development of Axin stabilizers with dual activities of Wnt inhibition and AMPK activation. […] HEK293 cells were used. B&C: 100 nM compounds, 24 h. FIG. 6D is a table showing the activity profile of YA6060. F=bioavailability; soubility is aqueous solubility.
A dual-luciferase gene reporter assay was used to test inhibitory activities of new compounds on Wnt signaling. […] Axin is also reported to form a complex with AMPK and its upstream kinase LKB1 (FIG. 12A and FIG. 12B) to facilitate AMPK activation. Therefore, the effects of new compounds on AMPK was examined. […] YA6060 and its analogs had dual activities of potent Wnt signaling inhibition and AMPK activation, which were dependent on the levels of scaffolding protein Axin.

Structure (SMILES): Cc1ccccc1-n1nnc(C(=O)Nc2ccc3cc(CN4CCNCC4)ccc3n2)c1C [YA6060]
- aqueous solubility (physchem): > 75 mg/mL
- increase in aqueous solubility from FX1128 and FX2065 (physchem): over 10,000 fold
- solubility (physchem; water, aqueous solubility): > 78 mg/mL
- liver fibrosis (Sirius Red) ([1]; 0.5 or 5 mg/kg/day, 4 weeks): reduced dimethylnitrosamine (DMNA)-induced fibrosis; also recorded: strong protective effects
- inflammation infiltration (H&E hepatic histology) ([1]; DMNA 4 weeks): ameliorated
- liver function (serum ALT, AST, albumin, total bilirubin) ([1]; YA6060 co-treatment with DMNA): normal liver function
- level of Axin 1 (Axin 1): stabilizing
